Where “and” joins values, the source holds several entries; their conditions need not be identical. Equal values may be shown once.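 Grown in 96-well plates, cells were treated for 48 hours with each compound at five concentrations. Insufficient inhibition: endpoint recorded as highest concentration tested. GI50 = concentration required for 50% inhibition of growth. TGI denotes the concentration required for complete inhibition of growth.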

Among the test systems are HOP-92 NSCLC; EKVX NSCLC; NCI-H23 lung; LOX IMVI melanoma; NCI-H522 lung; HCT-15 colon; 786-0 renal; HS 578T breast; OVCAR-5 ovarian; SK-MEL-28 melanoma; SNB-75 CNS; A498 renal.
Assay in all cases: NCI-60 cell line screen, 48 h

As to `Oc1cccc(-c2cc(=S)ss2)c1`, the TGI with HOP-92 NSCLC was 28.5 µM; in the assay with EKVX NSCLC, 31.5 µM; in the assay on NCI-H23 lung, 23.1 µM; in the assay on LOX IMVI melanoma, 33.3 µM; in the assay on NCI-H522 lung, 20.4 µM; in the assay with HCT-15 colon it was 31.4 µM. Further, the TGI with 786-0 renal worked out at 36.2 µM; in the assay with HS 578T breast it was 36.9 µM; in the assay on OVCAR-5 ovarian, 30.8 µM; in the assay with SK-MEL-28 melanoma it was 43.8 µM.

For the compound `Nc1nc(-c2ccccc2)cc(-c2ccc(F)cc2)c1-c1ccc(Cl)cc1`, the TGI in the assay on EKVX NSCLC, in the assay with NCI-H23 lung, in the assay with LOX IMVI melanoma, in the assay on SNB-75 CNS, in the assay on HCT-15 colon and in the assay with 786-0 renal was greater than 100 µM each time. Further, the TGI in the assay on HS 578T breast, with OVCAR-5 ovarian and with SK-MEL-28 melanoma was greater than 100 µM in each case.

`Cc1cc(S(=O)(=O)Nc2nc(N)n(-c3ccccc3)n2)c(S)cc1Cl`: the TGI with EKVX NSCLC, in the assay with LOX IMVI melanoma, with NCI-H522 lung, in the assay with SNB-75 CNS, with HCT-15 colon and in the assay with 786-0 renal was greater than 100 µM throughout. The TGI in the assay with A498 renal, in the assay with HS 578T breast, in the assay on OVCAR-5 ovarian and in the assay with SK-MEL-28 melanoma was greater than 100 µM in each case.

Turning to `CC12CCC3=C(CSC4=C3CSc3ccccc34)C1=CCCC2=O` (stereo not given), the TGI with EKVX NSCLC, in the assay on NCI-H23 lung, in the assay with LOX IMVI melanoma, in the assay on NCI-H522 lung, in the assay with HCT-15 colon and with OVCAR-5 ovarian was greater than 100 µM each time. The compound also had a TGI in the assay with SK-MEL-28 melanoma greater than 100 µM.

Consider `O=C(O)CC(Cc1ccccc1)C(=O)O` (stereo not given), for which the TGI with EKVX NSCLC, in the assay with NCI-H23 lung, with LOX IMVI melanoma, with NCI-H522 lung, with HCT-15 colon and with 786-0 renal was greater than 100 µM in each case. Further, the TGI in the assay with A498 renal, in the assay with HS 578T breast, in the assay with OVCAR-5 ovarian and in the assay on SK-MEL-28 melanoma was greater than 100 µM each time.

As for `COC(=O)c1ccc2c(c1)CCN2C(=O)c1cc2c(cc1Br)OCO2`, the GI50 with HOP-92 NSCLC is 0.432 µM; in the assay with EKVX NSCLC it was 3.77 µM; with NCI-H23 lung, 0.746 µM; in the assay with LOX IMVI melanoma, 0.936 µM; with NCI-H522 lung it was 0.0801 µM; in the assay on HCT-15 colon it was 0.378 µM. Moreover, the figures for the GI50 in the assay on A498 renal and with SK-MEL-28 melanoma were 2.62 µM and 19.2 µM, respectively. The TGI with HOP-92 NSCLC was 50 µM and 40.3 µM; in the assay on EKVX NSCLC, 50 µM and > 100 µM; in the assay with NCI-H23 lung it was 50 µM and 6.16 µM; in the assay on LOX IMVI melanoma it was 50 µM and 94.7 µM; in the assay with NCI-H522 lung it was 0.4 µM and 0.29 µM; in the assay with SNB-75 CNS it was 50 µM. In addition, the TGI was 50 µM and 23.5 µM in the assay on HCT-15 colon; 27.4 µM and > 100 µM with 786-0 renal; 30.8 µM and > 100 µM with A498 renal; greater than 50 µM in the assay with OVCAR-5 ovarian; 50 µM and > 100 µM with SK-MEL-28 melanoma.

Consider `CCNc1nc2ccccc2nc1NCC`, for which the TGI with EKVX NSCLC, in the assay with NCI-H23 lung, in the assay on LOX IMVI melanoma, in the assay with NCI-H522 lung, in the assay on SNB-75 CNS and in the assay with HCT-15 colon was greater than 100 µM each time. The TGI in the assay with 786-0 renal, with A498 renal, with HS 578T breast, in the assay on OVCAR-5 ovarian and with SK-MEL-28 melanoma was greater than 100 µM each time.

As to `C=CCCCN1C(=O)C2C3c4ccccc4C(C=O)(c4ccccc43)C2C1=O` (stereo not given), the TGI in the assay with HOP-92 NSCLC was 28.2 µM; in the assay with EKVX NSCLC, 20.7 µM; in the assay with NCI-H23 lung, 33 µM; with LOX IMVI melanoma, 22.1 µM; in the assay on NCI-H522 lung it was 25.7 µM; with HCT-15 colon it was 21.5 µM. Also, the TGI in the assay on 786-0 renal came to 26.6 µM; with OVCAR-5 ovarian it was 45.1 µM; with SK-MEL-28 melanoma, 31.9 µM.

Take `O=c1[nH]/c(=C/c2cccs2)c(=O)[nH]/c1=C/c1ccc(OCc2ccccc2)cn1`: the TGI in the assay on EKVX NSCLC is greater than 100 µM; with NCI-H23 lung, 1.7 µM; in the assay with LOX IMVI melanoma, greater than 100 µM; with NCI-H522 lung it was 0.0998 µM; with SNB-75 CNS, 2.66 µM; in the assay with HCT-15 colon it was 28.8 µM. Further, the TGI was 25.6 µM in the assay on 786-0 renal; 1.15 µM with A498 renal; 0.204 µM with HS 578T breast; greater than 69.5 µM with OVCAR-5 ovarian; greater than 100 µM in the assay with SK-MEL-28 melanoma.

Take `Brc1ccc2c(c1)[C@H]1CCc3c([nH]c4ccccc34)[C@H]1N2`: the TGI with HOP-92 NSCLC stood at 26.3 µM; in the assay on EKVX NSCLC, 22.6 µM; in the assay with NCI-H23 lung, 25 µM; in the assay with LOX IMVI melanoma, 19.1 µM; in the assay on SNB-75 CNS, 35.7 µM; with HS 578T breast, 46.5 µM. Moreover, the TGI in the assay with OVCAR-5 ovarian and with SK-MEL-28 melanoma was 27 µM in each case.

On to `c1ccc(C[P+]2(c3ccccc3)CCCCC2)cc1`, for which the TGI in the assay on EKVX NSCLC, in the assay on NCI-H23 lung, with LOX IMVI melanoma, in the assay on NCI-H522 lung, with SNB-75 CNS and with HCT-15 colon was greater than 100 µM in each case. The TGI with 786-0 renal, with A498 renal, in the assay with OVCAR-5 ovarian and with SK-MEL-28 melanoma was greater than 100 µM in each case.

As to `COc1cc2[nH]c(=O)[nH]c2c2c(C)c[nH]c12`, the TGI in the assay on EKVX NSCLC, in the assay with NCI-H23 lung, with LOX IMVI melanoma, in the assay on NCI-H522 lung, with SNB-75 CNS and with HCT-15 colon was greater than 100 µM in each case. For the same compound, the TGI with 786-0 renal, with A498 renal, in the assay with HS 578T breast, in the assay on OVCAR-5 ovarian and with SK-MEL-28 melanoma was greater than 100 µM throughout.

Take `CC(=O)Nc1ccc(S(=O)(=O)/N=c2/sc(S(N)(=O)=O)nn2C)cc1`: the TGI in the assay with HOP-92 NSCLC, in the assay on EKVX NSCLC, with NCI-H23 lung, with NCI-H522 lung, in the assay on SNB-75 CNS and with HCT-15 colon was greater than 100 µM in each case. The TGI with 786-0 renal, in the assay on A498 renal, in the assay on OVCAR-5 ovarian and in the assay with SK-MEL-28 melanoma was greater than 100 µM in each case.

The record behind these values is PubChem BioAssay (NCI).
